Data as given in paper doi:10.1101/2022.02.10.479976v1 (bioRxiv, 2022).
Several values for one entry are separate records, joined by “and”; a condition that tells them apart may be missing. Identical values can stand only once.

Assays:
[1] = Distribution of calcitonin in sub-compartments of sheep blood in vitro; assay type: in vitro ADME; conditions: calcitonin treated group, 2.5 ng/ml; sum of all five compartments = 100 percent
[2] = cited from earlier work
[3] = cited from earlier work; remark: listed apart in the source
[4] = cited from earlier work; remark: listed apart in the source

| Substance | distribution of calcitonin associated with RBC [1] | distribution of calcitonin in plasma [1] | distribution of calcitonin on WBC-surface [1] | half-life [2] | bioavailability ([2]; parenteral delivery, various formulations) | sustained pharmacodynamic effects (duration) [3] | plasma protein binding [4] | elimination half-life [2] |
| --- | --- | --- | --- | --- | --- | --- | --- | --- |
| Calcitonin | less than 8% | ~30% | ~30% and ~40% | 40 to 60 min | up to 70% | 18 to 22 h | ~40% | – |
| salmon Calcitonin | – | – | – | – | – | – | – | 54 to 76 min |
